Test results taken from US20100137346A1, “DESFE[…] ACTINIDE DEC[…]” (priority 2006, published 2010).
Where two headings read alike, the source gives them in different places.

Experiments:
[1] = Chelator-induced uranium excretion (urine + bile, 24 h) in bile duct-cannulated rat model; type: in vivo; conditions: for response vs control in vivo at 300 µmol/kg: Rattus norvegicus, ip, 24 h, read-out: Chelator-Induced U Excretion/Control
Procedure: Desferrithiocin Analogue Induced Excretion of Uranium. In order to compare results with previous chelator-induced iron excretion data, the uranium clearance studies were carried out in a bile duct-cannulated rat model. The animals were given uranyl acetate dihydrate SC at a dose of 5 mg/kg (the actual dose of uranium is 2.8 mg/kg). Bile and urine samples were collected for 24 hours after dosing. Kidneys were removed from selected animals and tissue uranium concentration measured. At least three animals were utilized in each experimental group. Data from two separate control studies (uranyl acetate/ no chelator) have now been combined for a total of 14 control animals. All uranium concentrations were measured using ICPMS. The data are reported as the total quantity of uranium excreted [urine +bile]; the mode of excretion [urine/bile] is also given. In addition the percentage of the administered dose of uranium cleared and chelator-induced uranium excretion vs the controls is also given. Four positive controls were evaluated: DTPA (13, Table 1) given as its trisodium calcium salt, DFO (14), N,N′-bis(2hydroxybenzyl)ethylenediamine-N,N′-diacetic acid, monosodium salt (NaHBED, 15) and the hydroxypyridone CP94 (16) shown to bind uranium [Pashalidis, et al., Effective complex formation in the interaction of 1,2-dimethyl-3-hydroxypyrid-4-one (Deferiprone or L1) with uranium(VI), Journal of Radioanalytical and Nuclear Chemistry 1999; 242:181-184.] The total metal cleared after 24 h in control rats was 10% of the administered dose. When DTPA, 13, was given IP or PO at 300 μmol/kg immediately after uranium, the excretion was 17% and 8% of the administered dose respectively (p>0.05). However, when the drug was given IP at a dose of 600 μmol/kg immediately post-metal, the uranium excretion was significant, 20% (p<0.005). This is consistent with previously published data using a similar animal model.[Domingo, et al., Comparative effects of the chelators sodium 4,5-dihydroxybenzene-1,3-disulfonate (Tiron) and diethylenetriaminepentaacetic acid (DTPA) on acute uranium nephrotoxicity in rats, Toxicology 1997; 118:49-59] DFO (14) and CP94 (16) given IP immediately post uranyl acetate were ineffective.
Desferrithiocin Analogue-Induced Excretion of Uranium. In order to compare results with previous chelator-induced iron excretion data, the uranium clearance studies were carried out in a bile duct-cannulated rat model. The animals were given uranyl acetate dihydrate SC at a dose of 5 mg/kg (the actual dose of uranium is 2.8 mg/kg). Bile and urine samples were collected for 24 hours after dosing. Kidneys were removed from selected animals and tissue uranium concentration measured. At least three animals were utilized in each experimental group. Data from two separate control studies (uranyl acetate/ no chelator) are combined for a total of 14 control animals. All uranium concentrations were measured using ICPMS. The data are reported as the total quantity of uranium excreted [urine +bile]; the mode of excretion [urine/bile] is also given. In addition the percentage of the administered dose of uranium cleared and chelator-induced uranium excretion vs the controls is also given. Four positive controls were evaluated: DTPA (1, Table 1) given as its trisodium calcium salt, DFO (2), N,N -bis(2-hydroxybenzyl)ethylenediamine-N,N-diacetic acid, monosodium salt (NaHBED, 3) and the hydroxypyridone CP94 (4) shown to bind uranium. The total metal cleared after 24 h in control rats was 10% of the administered dose. When DTPA, 1, was given IP or PO at 300 μmol/kg immediately after uranium, the excretion was 17% and 8% of the administered dose respectively (p>0.05). However, when the drug was given IP at a dose of 600 μmol/kg immediately post metal, the uranium excretion was significant, 20% (p<0.005). This is consistent with previously published data using a similar animal model.^2 DFO (2) and CP94 (4) given IP immediately post uranyl acetate were ineffective.

[2] = cited from earlier work

## COCCOCCOCCOc1ccc(C2=N[C@@](C)(C(=O)O)CS2)c(O)c1 [drawing 21]
[1]; 300 μmol/kg IP Immediate
  Uranium Excretion: 626 ± 123 µg/kg
  Uranium Excretion [urine/bite]: 35/65
  response vs control in vivo at 300 µmol/kg: 220%

## CC1(C)SC(c2ccccc2O)=N[C@@H]1C(=O)O [drawing 9]
[1]; 300 μmol/kg IP 0.5 h Post
  % of Administered Dose Cleared: 7%
  Uranium Excretion: 200 ± 47 µg/kg
  Uranium Excretion [urine/bite]: [37/63]
  response vs control in vivo at 300 µmol/kg: 70%
[1]; 300 μmol/kg IP Immediate
  % of Administered Dose Cleared: 26%
  Uranium Excretion: 743 ± 189 µg/kg
  Uranium Excretion [urine/bite]: 8/92
  response vs control in vivo at 300 µmol/kg: 260%

## O=C(O)[C@H]1CSC(c2ncccc2O)=N1 [Compound 2, (S)-4,5-dihydro-2-(3-hydroxy-2-pyridinyl)-4-thiazolecarboxylic acid]
[2]; iron-overloaded C. apella primate
  ICE: 4.8%

## COc1ccc(C2=N[C@@](C)(C(=O)O)CS2)c(O)c1 [drawing 8]
[1]; 300 μmol/kg IP 0.5 h Post
  % of Administered Dose Cleared: 15%
  Chelator-Induced U Excretion/Control: 1.5
  Uranium Excretion: 413 ± 148 µg/kg
  Uranium Excretion [urine/bite]: [37/63]
[1]; 300 μmol/kg IP Immediate
  Chelator-Induced U Excretion/Control: 2.0
  Uranium Excretion: 568 ± 133 µg/kg
  Uranium Excretion [urine/bite]: 59/41

## C[C@]1(C(=O)O)CSC(c2ccc(O)cc2O)=N1 [drawing 23]
[2]; orally to C. apella primates, 150 μmol/kg, [stool/urine], data from ref 19 / ref 17
  relative percentages of the iron excreted in the stool and urine: 86/14
[2]; orally to C. apella primates, 150 μmol/kg, data from ref 19 / ref 17
  Iron Clearing Efficiency (%): 13.4 ± 5%

## CC1(C)SC(c2ccccc2O)=N[C@@H]1C(=O)O [drawing 20]
[1]; 300 μmol/kg IP 0.5 h Post
  % of Administered Dose Cleared: 7%
  Chelator-Induced U Excretion/Control: 0.7
  Uranium Excretion: 200 ± 47 µg/kg
  Uranium Excretion [urine/bite]: 37/63
[1]; 300 μmol/kg IP Immediate
  % of Administered Dose Cleared: 26%
  Chelator-Induced U Excretion/Control: 2.6
  Uranium Excretion: 743 ± 189 µg/kg
  Uranium Excretion [urine/bite]: 8/92

## CC(=O)N(O)CCCNC(=O)CCC(=O)N(O)CCCCCNC(=O)CCC(=O)N(O)CCCN
[1]; 300 μmol/kg IP Immediate
  % of Administered Dose Cleared: 16%
  Uranium Excretion: 438 ± 191 µg/kg
  Uranium Excretion [urine/bite]: 100/0
  response vs control in vivo at 300 µmol/kg: 160%
